Data published in US20250099478A1, “PLASMA KALLIKREIN INHIBITORS” (Merck Sharp & Dohme LLC, priority 2022, published 2025).
pIC50: −log10 of the molar value.

Biological target: T1, Human plasma kallikrein (Homo sapiens, UniProt P03952)
T1 construct: yields a heavy chain (371 amino acids) and a light chain (248 amino acids); purchased Enzyme Research Laboratories
Assay: Plasma Kallikrein Assay
Format: biochemical
Conditions: purified Human plasma kallikrein 0.5 nM, substrate Acetyl-K-P-R-AFC; read-out: PKal IC50
Experimental: The effectiveness of a compound of the present invention as an inhibitor of plasma kallikrein can be determined using a relevant purified serine protease, and an appropriate synthetic substrate. The rate of hydrolysis of the chromogenic or fluorogenic substrate by the relevant serine protease was measured both in the absence and presence of compounds of the present invention. Assays were conducted at rt or at 37° C. […] A decrease in the rate of fluorescence change in the presence of inhibitor is indicative of enzyme inhibition. Such methods are known to one skilled in the art. The results of this assay are expressed as the half-maximal inhibitory concentrations (IC50), or the inhibitory constant, Ki.
Plasma kallikrein determinations were made in 50 mM HEPES buffer at pH 7.4 containing 150 mM NaCl, 5 mM CaCl2), and 0.1% PEG 8000 (polyethylene glycol; Fisher Scientific). Determinations were made using purified Human plasma kallikrein at a final concentration of 0.5 nM (Enzyme Research Laboratories) and the synthetic substrate, Acetyl-K-P-R-AFC (Sigma #C6608) at a concentration of […].
Times required to achieve equilibration between enzyme and inhibitor were determined in control experiments. […] IC50 was determined by inflection point from a four parameter logistic curve fit. Ki was calculated using the Cheng Prusoff equation, Ki=IC50/(1+([S]/Km)).

T1 sequence (P03952 391-638 limits assumed): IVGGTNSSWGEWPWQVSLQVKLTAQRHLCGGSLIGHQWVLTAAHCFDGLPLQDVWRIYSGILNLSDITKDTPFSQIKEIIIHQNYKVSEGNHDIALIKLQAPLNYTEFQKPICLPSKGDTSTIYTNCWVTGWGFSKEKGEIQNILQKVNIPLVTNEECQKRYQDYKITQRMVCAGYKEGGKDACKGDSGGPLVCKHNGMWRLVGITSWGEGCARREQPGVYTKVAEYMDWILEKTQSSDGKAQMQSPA
T1 sequence (P03952 20-390 partner limits assumed): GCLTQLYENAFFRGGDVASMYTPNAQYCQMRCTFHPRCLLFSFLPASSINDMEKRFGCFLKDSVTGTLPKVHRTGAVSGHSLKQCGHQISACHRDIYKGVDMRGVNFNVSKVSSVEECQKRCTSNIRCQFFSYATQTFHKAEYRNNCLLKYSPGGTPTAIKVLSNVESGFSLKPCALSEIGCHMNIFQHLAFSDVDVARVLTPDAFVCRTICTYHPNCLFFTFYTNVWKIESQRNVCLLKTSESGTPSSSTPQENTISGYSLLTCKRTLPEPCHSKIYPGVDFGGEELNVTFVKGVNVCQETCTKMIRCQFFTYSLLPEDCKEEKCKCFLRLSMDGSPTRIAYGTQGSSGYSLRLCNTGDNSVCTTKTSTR

pIC50 | Compound
7.34 | CC(c1ccccc1)n1cc(C(=O)N2CCC[C@@]3(C2)OC(=O)Nc2ccc(Cl)c(F)c23)cn1 (single isomer, unassigned) [Example 23]
7.42 | CC(c1ccccc1)n1cc(C(=O)N2CCC[C@@]3(C2)OC(=O)Nc2ccc(Cl)c(F)c23)cn1 (single isomer, unassigned) [Example 24]
7.98 | C[C@H](c1cccc(Cl)c1)n1cc(C(=O)N2CCC[C@@]3(C2)OC(=O)Nc2ccc(Cl)c(F)c23)cn1 (single isomer, unassigned) [Example 28]
7.47 | CCC(c1ccc2ncncc2c1)n1cc(C(=O)N2CCC[C@@]3(C2)OC(=O)Nc2ccc(Cl)c(F)c23)cn1 (single isomer, unassigned) [Example 41]
8.35 | CC[C@@H](c1ccc(F)cc1)c1nnc(C(=O)N2CCC[C@@]3(C2)OC(=O)Nc2ccc(Cl)c(F)c23)[nH]1 (single isomer, unassigned) [Example 84]
8.03 | O=C1Nc2ccc(Cl)c(F)c2[C@@]2(CCCN(C(=O)C3(F)CCN(Cc4ccccc4)C3)C2)O1 (single isomer, unassigned) [Example 131, (R)-1′-((S or R)-1-Benzyl-3-fluoropyrrolidine-3-carbonyl)-6-chloro-5-fluorospiro[benzo[d][1,3]oxazine-4,3′-piperidin]-2(1H)-one]
7.36 | O=C1Nc2ccc(Cl)c(F)c2[C@]2(CCN(C(=O)C3CCN(Cc4ccc(Cn5ccccc5=O)cc4)C3)C2)O1 (single isomer, unassigned) [Example 136]
7.51 | O=C1Nc2ccc(Cl)c(F)c2[C@]2(CCN(C(=O)C3CCN(Cc4ccc(Cn5ccccc5=O)cc4)C3)C2)O1 (single isomer, unassigned) [Example 137]
7.70 | O=C1Nc2ccc(Cl)c(F)c2[C@@]2(CCCN(C(=O)c3cnn(Cc4ccc(F)c(F)c4)c3)C2)O1 [Example 4, (R)-6-Chloro-1′-(1-(3,4-difluorobenzyl)-1H-pyrazole-4-carbonyl)-5-fluorospiro[benzo[d][1,3]oxazine-4,3′-piperidin]-2(1H)-one]
7.64 | O=C1Nc2ccc(Cl)c(F)c2[C@@]2(CCCN(C(=O)c3cnn(Cc4cccc(C(F)(F)F)c4)c3)C2)O1 [Example 5, (R)-6-Chloro-5-fluoro-1′-(1-(3-(trifluoromethyl)benzyl)-1H-pyrazole-4-carbonyl)spiro[benzo[d][1,3]oxazine-4,3′-piperidin]-2(1H)-one]
8.10 | O=C1Nc2ccc(Cl)c(F)c2[C@@]2(CCCN(C(=O)c3cnn(Cc4ccc(F)c(Cl)c4)c3)C2)O1 [Example 6, (R)-6-Chloro-1′-(1-(3-chloro-4-fluorobenzyl)-1H-pyrazole-4-carbonyl)-5-fluorospiro[benzo[d][1,3]oxazine-4,3′-piperidin]-2(1H)-one]
7.47 | O=C1Nc2ccc(Cl)c(F)c2[C@@]2(CCCN(C(=O)c3cnn(Cc4ccc(F)c(N5CCC5)c4)c3)C2)O1 [Example 8, (R)-1′-(1-(3-(Azetidin-1-yl)-4-fluorobenzyl)-1H-pyrazole-4-carbonyl)-6-chloro-5-fluorospiro[benzo[d][1,3]oxazine-4,3′-piperidin]-2(1H)-one]
7.57 | O=C1Nc2ccc(Cl)c(F)c2[C@@]2(CCCN(C(=O)c3cnn(Cc4cccc(C5CC5)c4)c3)C2)O1 [Example 10, (R)-6-Chloro-1′-(1-(3-cyclopropylbenzyl)-1H-pyrazole-4-carbonyl)-5-fluorospiro[benzo[d][1,3]oxazine-4,3′-piperidin]-2(1H)-one]
7.58 | O=C1Nc2ccc(Cl)c(F)c2[C@@]2(CCCN(C(=O)c3cnn(Cc4cncc(Cl)c4)c3)C2)O1 [Example 12, (R)-6-Chloro-1′-(1-((5-chloropyridin-3-yl)methyl)-1H-pyrazole-4-carbonyl)-5-fluorospiro[benzo[d][1,3]oxazine-4,3′-piperidin]-2(1H)-one]
